Values joined by “and” are separate entries in the source; they are usually repeats but may differ in a detail not shown here. Identical values can stand only once. Like-named read-outs stand apart in the source and are kept apart here.
Experiments:
β-lactamase R244S = β-lactamase R244S (Escherichia coli, UniProt P62593, R241S); assay: Isothermal titration calorimetry, binding enthalpy, R244S mutant
Procedure: (§1) The binding of the compounds of the present invention to β-lactamase was also measured by isothermal titration calorimetry.
(§2) These experiments, in combination with the inhibition assays, indicate that the compounds identified in this disclosure bind to the wild type as well as drug resistant beta lactamases with favorable binding enthalpies. This is a very important characteristic from the point of view of further optimization since it facilitates the achievement of extremely high affinities and low susceptibilities to drug resistant mutations and naturally occurring polymorphisms.
(§3) Isothermal titration calorimetry was performed on a high-precision VP-ITC titration calorimeter (Microcal Inc., Northampton, Mass.). β-Lactamase solutions were titrated with inhibitors in 50 mM sodium phosphate, 2% DMSO, pH 7.0, with β-lactamase concentrations ranging from 15 to 25 μM and inhibitor concentrations ranging from 300 to 1000 μM. The heat evolved from each injection was obtained by integrating the calorimetric signal. Heat of binding was obtained as the difference between the heat of reaction and the heat of inhibitor dilution. Data were analyzed using Origin 7.0 (OriginLab Corporation, Northampton, Mass.).

β-lactamase M69I = β-lactamase M69I (Escherichia coli, UniProt P62593, M67I); assay: Isothermal titration calorimetry, binding enthalpy, M69I mutant
Procedure: as §1, §2, §3

β-lactamase wt = β-lactamase wt (Escherichia coli, UniProt P62593); assay: Isothermal titration calorimetry, binding enthalpy, wild type
Procedure: as §1, §2, §3

TEM-1 β-lactamase [1] = target: T1, TEM-1 β-lactamase (Escherichia coli, UniProt P62593); assay: Isothermal titration calorimetry, binding to TEM-1 β-lactamase (Example 17); details: ITC
Summary of the method: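 TEM-1 β-lactamase (15–25 μM) titrated with inhibitor (300–1000 μM) in 50 mM sodium phosphate, 2% DMSO, pH 7.0. Integrated injection heats were corrected for inhibitor dilution heat to give binding heat.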

β-lactamase mutant E104K = β-lactamase mutant E104K (Escherichia coli, UniProt P62593, E102K); type: biochemical; details: number higher than 1 reflects a loss of potency against mutant
Procedure: (§4) The inhibition of TEM-1 β-lactamase was determined spectrophotometrically. B-lactamase activity was followed by measuring the hydrolysis of nitrocefin, [3-(2,4-dinitrostyryl)-(6R, 7R)-7-(2-thienylacetamido)-ceph-3-em-4-carboxylic acid, E-isomer], (Calbiochem, San Diego, Calif., USA) at 486 nm. Inhibition assays were performed at 25° C. in 50 mM sodium phosphate, 5% DMSO, pH 7.0. […] Inhibitor was added to the enzyme and incubated for ten minutes before the addition of substrate. Inhibition constants (Ki) for the inhibitors are obtained at the desired temperature and solvent conditions by measuring the rate of substrate hydrolysis at increasing amounts of inhibitors.
(§5) Three of the most important mutations are M69I, R244S and E104K.

β-lactamase mutant R244S = β-lactamase mutant R244S (Escherichia coli, UniProt P62593, R241S); type: biochemical; details: number higher than 1 reflects a loss of potency against mutant
Procedure: as §4, §5

β-lactamase mutant M69I = β-lactamase mutant M69I (Escherichia coli, UniProt P62593, M67I); type: biochemical; details: number higher than 1 reflects a loss of potency against mutant
Procedure: as §4, §5

TEM-1 β-lactamase [2] = target: T1, TEM-1 β-lactamase; assay: TEM-1 β-lactamase inhibition assay (nitrocefin hydrolysis, 486 nm); type: biochemical
Summary of the method: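 TEM-1 activity followed by nitrocefin hydrolysis at 486 nm, 25 °C, 50 mM sodium phosphate pH 7.0, 5% DMSO; inhibitor preincubated with enzyme 10 min before substrate. Ki obtained from rates at increasing inhibitor concentrations fitted to competitive-inhibition equations; penicillin G also used as substrate for KM and kcat.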

β-lactamase E104K = β-lactamase E104K (Escherichia coli, UniProt P62593, E102K); assay: Isothermal titration calorimetry, binding enthalpy, E104K mutant
Procedure: as §1, §2, §3

AmpC β-lactamase = target: T2, AmpC β-lactamase (Escherichia coli, UniProt P00811); type: biochemical; details: substrate hydrolysis by AmpC, 25° C., pH 7.0
T2 construct: made in house; host or cells: E. coli BL21 (DE3)
T2 sequence (P00811 20-377): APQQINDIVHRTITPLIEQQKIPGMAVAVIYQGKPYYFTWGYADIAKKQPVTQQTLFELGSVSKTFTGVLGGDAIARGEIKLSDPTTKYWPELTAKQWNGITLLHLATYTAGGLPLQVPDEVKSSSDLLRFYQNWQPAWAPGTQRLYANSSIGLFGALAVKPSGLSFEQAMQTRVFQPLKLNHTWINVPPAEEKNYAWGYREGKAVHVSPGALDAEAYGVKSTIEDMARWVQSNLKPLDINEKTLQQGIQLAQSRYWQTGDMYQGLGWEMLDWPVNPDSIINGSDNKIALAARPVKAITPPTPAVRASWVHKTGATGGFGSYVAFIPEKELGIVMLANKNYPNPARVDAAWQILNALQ
Procedure: The competitive inhibition of β-lactamase was determined spectrophotometrically using a Varian (Walnut Creek, Calif.) Cary 100 UV-Visible spectrophotometer. β-lactamase activity was followed by measuring the hydrolysis of nitrocefin, [3-(2,4-dinitrostyryl)-(6R, 7R)-7-(2-thienylacetamido)-ceph-3-em-4-carboxylic acid, E-isomer], (Calbiochem, San Diego, Calif.) at 486 nm. Inhibition assays were performed at 25° C. in 50 mM sodium phosphate, 5% DMSO, pH 7.0. […] Penicillin G (Sigma, St. Louis, Mo.) was also used as a substrate to determine KM and kcat.

| Structure (SMILES) | ΔH R244S (β-lactamase R244S) [kcal/mol] | ΔH M69I (β-lactamase M69I) [kcal/mol] | ΔH wt (β-lactamase wt) [kcal/mol] | ΔG (TEM-1 β-lactamase [1]) [kcal/mol] | ΔH (TEM-1 β-lactamase [1]) [kcal/mol] | −TΔS (TEM-1 β-lactamase [1]) [kcal/mol] | Loss of potency: ratio of the inhibitory constant between mutant and wild type (Potencywt/Potencymutant), E104K (β-lactamase mutant E104K) | Loss of potency: ratio of the inhibitory constant between mutant and wild type (Potencywt/Potencymutant), R244S (β-lactamase mutant R244S) | Loss of potency: ratio of the inhibitory constant between mutant and wild type (Potencywt/Potencymutant), M69I (β-lactamase mutant M69I) | Ki (TEM-1 β-lactamase [2]; Ki from Lineweaver-Burke Analysis, values in parenthesis, Lineweaver-Burke analysis) [µM] | Ki (TEM-1 β-lactamase [2]; Ki, 25° C., 50 mM sodium phosphate, 5% DMSO, pH 7.0, enzyme 5 nM, nitrocefin 167 μM) [µM] | Ki (TEM-1 β-lactamase [2]; Ki, TEM-1 β-lactamase) [µM] | ΔH E104K (β-lactamase E104K) [kcal/mol] | melting point [°C] | Km (AmpC β-lactamase) | kcat (AmpC β-lactamase) | Km (AmpC β-lactamase; read-out: KM) [µM] |
| --- | --- | --- | --- | --- | --- | --- | --- | --- | --- | --- | --- | --- | --- | --- | --- | --- | --- |
| O=C(Oc1ccccc1[N+](=O)[O-])c1cc(B(O)O)cc([N+](=O)[O-])c1 [Compound (1b), 3-(2-Nitrophenoxycarbonyl)-5-nitrophenylboronic acid] | -9.5 | -2 | -3.8 | -6.42 | -4.011 | -2.409 | 0.92 | 1.2 | 1.0 | 1.18 | 12 ± 3 | 12 | -3.9 | 128 to 130 |  |  |  |
| O=C(Cc1cccs1)N[C@@H]1C(=O)N2C(C(=O)O)=C(/C=C/c3ccc([N+](=O)[O-])cc3[N+](=O)[O-])CS[C@H]12 [nitrocefin, 3-(2,4-dinitrostyryl)-(6R, 7R)-7-(2-thienylacetamido)-ceph-3-em-4-carboxylic acid, E-isomer] |  |  |  |  |  |  |  |  |  |  |  |  |  |  | 250 µM and 253 µM | 975 s⁻¹ and 976 ± 46 s⁻¹ |  |
| CC1(C)S[C@@H]2[C@H](NC(=O)Cc3ccccc3)C(=O)N2[C@H]1C(=O)O [penicillin G, Penicillin G] |  |  |  |  |  |  |  |  |  |  |  |  |  |  |  | 198 ± 4 s⁻¹ | 28 ± 3 |

Reference: patent US7183267B2, “β-lactamase inhibitors and methods of use thereof” (priority 2003, dated 2007)
